Results reported in patent US8481561B2, “Classes of GABAA/BZR ligands” (Innovationspatent Sverige AB, priority 2008, dated 2013).

Key:
[1] = molecular target: benzodiazepine receptor; experiment: Displacement of 3H-flumazenil binding in rat cortical tissue (receptor binding); settings: 3H-Flumazenil binding in vitro, rat cortical membranes; mean of three determinations
Procedure: Affinity of test substances for the benzodiazepine receptor was determined in vitro by displacement of ^3H-flumazenil in rat cortical tissue.

Ki [1]	melting point	Compound
5.5 nM	343 °C	Cc1ccc2[nH]c3snc(-c4ccc([N+](=O)[O-])cc4)c3c(=O)c2c1 [Compound 23, 6-Methyl-3-(4-nitrophenyl)-isothiazolo[5,4-b]quinolin-4(9H)-one]
2.9 nM	331 °C	Cc1ccc(-c2nsc3[nH]c4ccc(Br)cc4c(=O)c23)cc1 [Compound 24, 6-Bromo-3-(4-methylphenyl)isothiazolo[5,4-b]quinolin-4(9H)-one]
18 nM		Cc1ccc2[nH]c3onc(-c4ccccc4)c3c(=O)c2c1 [Compound 26, 6-Methyl-3-phenyl-isoxazolo[5,4-b]quinolin-4(9H)-one]
2 nM		COc1ccc(-c2nsc3[nH]c4ccc(C)cc4c(=O)c23)cc1 [Compound 22, 3-(4-Methoxyphenyl)-6-methylisothiazolo[5,4-b]quinolin-4(9H)-one]
2 nM		CCCC(=O)Nc1nsc2[nH]c3ccc(C)cc3c(=O)c12 [Compound 31, N-(6-methyl-4-oxo-4,9-dihydroisothiazolo[5,4-b]quinolin-3-yl)butanamide]
5.3 nM	357 °C	Cc1ccc2[nH]c3snc(-c4ccc(Br)cc4)c3c(=O)c2c1 [Compound 21, 3-(4-Bromophenyl)-6-methylisothiazolo[5,4-b]quinolin-4(9H)-one]
1.9 nM	330 °C	Cc1ccc(-c2nsc3[nH]c4ccc(C)cc4c(=O)c23)cc1 [Compound 19, 6-Methyl-3-(4-methylphenyl)isothiazolo[5,4-b]quinolin-4(9H)-one]
